For data set [1], the system named is SARS-CoV-2.
The test system of data set [2] is SARS-CoV-2. The conditions noted are these: in vivo.

Molecules are shown by their SMILES.

Regarding `CC(C)C(=O)OC[C@H]1O[C@@H](n2ccc(NO)nc2=O)[C@H](O)[C@@H]1O` [Compound A, {(2R,3S,4R,5R)-3,4-dihydroxy-5-[4-(hydroxyimino)-2-oxo-3,4-dihydropyrimidin-1 (2H)-yl]oxolan-2-yl}methyl 2-methylpropanoate], the “mean SARS-CoV-2 viral RNA mutation rates per 10,000 nucleotides” value with SARS-CoV-2 [1] (800 mg, end of therapy) is 5.9 per 10,000 nucleotides. The compound further showed a Drug-related adverse events in the data set on SARS-CoV-2 [1] (human, in vivo) of 11.0%. In the data set with SARS-CoV-2 [2], the “participants hospitalized or died through Day 29” value is on record as approximately 3% and the “percentage of mutations in viral RNA post-treatment at Day 5” value is “highest percentage of mutations”.

For the origin of these results see patent US20250205268A1, “TREATMENT OF VIRUSES WITH ANTIVIRAL NUCLEOSIDES” (priority 2021, published 2025).
